Calls of active or inactive are those of the source. No cut-off for these calls is given here.
Tests used:
Galectin-4 [1] = biological target: T1, Galectin-4 (Homo sapiens, UniProt P56470); assay: (§1) Competitive binding affinity to recombinant human galectin-4 N-terminal after 5 mins in presence of fluorescent probe 3,3'-dideoxy-3-[4-(fluorescein-5-yl-carbonylaminomethyl)-1H-1,2,3-triazol-1-yl]-3'-(3,5-dimethoxy-benzamido)-1,1'-sulfanediyl-di-beta-D-galactopyranoside by fluorescence polarization assay
T1 sequence (P56470 whole entry): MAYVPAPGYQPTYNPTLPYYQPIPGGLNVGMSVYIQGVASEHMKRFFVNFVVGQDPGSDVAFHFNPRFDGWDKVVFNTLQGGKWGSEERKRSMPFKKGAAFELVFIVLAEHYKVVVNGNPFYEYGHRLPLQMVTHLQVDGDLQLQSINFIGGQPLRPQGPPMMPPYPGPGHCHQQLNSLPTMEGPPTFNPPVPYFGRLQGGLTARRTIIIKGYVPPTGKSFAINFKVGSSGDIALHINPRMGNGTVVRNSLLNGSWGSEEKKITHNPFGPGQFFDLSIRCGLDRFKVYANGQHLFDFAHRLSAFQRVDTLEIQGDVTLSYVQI

Galectin-4 [2] = biological target: T1, Galectin-4; assay: Competitive binding affinity to recombinant human galectin-4 C-terminal after 5 mins in presence of fluorescent probe 2-(fluorescein-5/6-yl-carbonyl)-aminoethyl 2-acetamido-2-deoxy-alpha-D-galactopyranosyl-(1-3)-[alpha-L-fucopyranosyl-(1-2)]-beta-D-galactopyranosyl-(1-4)-beta-D-glucopyranoside by fluorescence polarization assay
Galectin-8 = biological target: T2, Galectin-8 (Homo sapiens, UniProt O00214); assay: Competitive binding affinity to recombinant human galectin-8 N-terminal after 5 mins in presence of fluorescent probe 2-(fluorescein-5-yl-carbonylamino)ethyl beta-D-galactopyranosyl(1-4)-2-acetamido-2-deoxy-beta-D-glucopyranosyl(1-3)-beta-D-galactopyranosyl(1-4)-beta-D-glucopyranoside by fluorescence polarization assay
T2 sequence (O00214 whole entry): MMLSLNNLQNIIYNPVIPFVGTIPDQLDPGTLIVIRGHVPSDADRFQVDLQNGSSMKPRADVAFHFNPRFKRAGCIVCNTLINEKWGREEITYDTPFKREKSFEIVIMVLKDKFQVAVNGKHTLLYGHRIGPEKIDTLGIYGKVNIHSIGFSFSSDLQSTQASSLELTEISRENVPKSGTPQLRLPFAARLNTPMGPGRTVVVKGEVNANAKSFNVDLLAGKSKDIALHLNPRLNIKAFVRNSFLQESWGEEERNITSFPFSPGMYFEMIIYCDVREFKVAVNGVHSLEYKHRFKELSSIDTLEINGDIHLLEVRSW

Galectin-9 [3] = biological target: T3, Galectin-9 (Homo sapiens, UniProt O00182); assay: Competitive binding affinity to recombinant human galectin-9 N-terminal after 5 mins in presence of fluorescent probe 2-(fluorescein-5-yl-carbonylamino)ethyl-beta-D-galactopyranosyl(1-4)-2-acetamido-2-deoxy-beta-D-glucopyranosyl(1-3)-beta-D-galactopyranosyl(1-4)-beta-D-glucopyranoside by fluorescence polarization assay
Galectin-9 [4] = biological target: T3, Galectin-9; assay: as §1, with “galectin-9 C-terminal” for “galectin-4 N-terminal”
Galectin-3 [5] = biological target: Galectin-3 (Homo sapiens, UniProt P17931); assay: Competitive binding affinity to recombinant human galectin-3 after 5 mins in presence of fluorescent probe by fluorescence polarization assay
[6] = Solubility of the compound in DMSO at 100 mM; type: physicochemical; conditions: 100000 µM
Galectin-7 = biological target: T4, Galectin-7 (Mus musculus, UniProt O54974); assay: Competitive binding affinity to recombinant mouse galectin-7 after 5 mins in presence of fluorescent probe beta-D-galactopyranosyl(1-4)-2- acetamido-2-deoxy-beta-D-glucopyranosyl(1-3)-beta-D-galactopyranosyl(1-4)-(N1-fluorescein-5-yl-carbonylaminomethylcarbonyl)-beta-D-glucopyranosylamine by fluorescence polarization assay
T4 sequence (O54974 whole entry): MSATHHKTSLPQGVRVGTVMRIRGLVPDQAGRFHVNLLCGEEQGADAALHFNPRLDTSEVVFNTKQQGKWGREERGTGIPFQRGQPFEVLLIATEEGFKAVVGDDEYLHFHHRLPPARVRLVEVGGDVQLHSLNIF

Mus musculus [7] = assay: Anti-fibrotic activity in C57/Bl6 mouse bleomycin-induced lung fibrosis model assessed as reduction in total lung collagen levels at 3.5 mg/kg administered intratracheally as 4 doses every 48 hrs commencing on day 18 of bleomycin induction measured on day 26 post last dose relative to control; type: functional; parameters: scale not given: the % may be the effect or the level left
Galectin-3 [8] = biological target: Galectin-3 (Homo sapiens, UniProt P17931, R186S); assay: (§2) Competitive binding affinity to recombinant human galectin-3 R186S mutant after 5 mins in presence of fluorescent probe 2-(fluorescein-5/6-yl-carbonyl)-aminoethyl 2-acetamido-2-deoxy-alpha-D-galactopyranosyl-(1-3)-[alpha-L-fucopyranosyl-(1-2)]-beta-D-galactopyranosyl-(1-4)-beta-D-glucopyranoside by fluorescence polarization assay
Galectin-2 = biological target: T5, Galectin-2 (Homo sapiens, UniProt P05162); assay: Competitive binding affinity to recombinant human galectin-2 after 5 mins in presence of fluorescent probe ,[…]-3-[4-(fluorescein-5-yl-carbonylaminomethyl)-1H-1,2,3-triazol-1-yl]-3'-(3,5-dimethoxy-benzamido)-1,1'-sulfanediyl-di-beta-D-galactopyranoside by fluorescence polarization assay
T5 sequence (P05162 whole entry): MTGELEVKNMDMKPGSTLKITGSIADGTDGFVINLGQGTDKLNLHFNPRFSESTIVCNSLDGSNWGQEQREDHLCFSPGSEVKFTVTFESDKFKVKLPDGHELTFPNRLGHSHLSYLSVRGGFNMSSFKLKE

Galectin-3 [9] = biological target: Galectin-3 (Homo sapiens, UniProt P17931, R186K); assay: (§3) Competitive binding affinity to recombinant human galectin-3 R186K mutant after 5 mins in presence of fluorescent probe beta-D-galactopyranosyl(1-4)-2-acetamido-2-deoxy-beta-D-glucopyranosyl(1-3)-beta-D-galactopyranosyl(1-4)-(N1-fluorescein-5-yl-carbonylaminomethylcarbonyl)-beta-D-glucopyranosylamine by fluorescence polarization assay
Mus musculus [10] = assay: Anti-fibrotic activity in C57/Bl6 mouse assessed as reduction in bleomycin-induced galectin-3 levels in serum at 0.35 to 3.5 mg/kg administered intratracheally as 4 doses every 48 hrs commencing on day 18 of bleomycin induction measured on day 26 post last dose by ELISA; type: functional, organism-based
Galectin-3 [11] = biological target: Galectin-3 (Homo sapiens, UniProt P17931, K176L); assay: as §3, with “K176L” for “R186K”
Mus musculus [12] = assay: Anti-fibrotic activity in C57/Bl6 mouse bleomycin-induced lung fibrosis model assessed as reduction in total lung collagen levels at 0.35 to 1 mg/kg administered intratracheally as 4 doses every 48 hrs commencing on day 18 of bleomycin induction measured on day 26 post last dose; type: functional, organism-based
Mus musculus [13] = assay: (§4) Anti-fibrotic activity in C57/Bl6 mouse bleomycin-induced lung fibrosis model assessed as reduction in fibrosis score at 0.35 to 1 mg/kg administered intratracheally as 4 doses every 48 hrs commencing on day 18 of bleomycin induction measured on day 26 post last dose by Masson's trichrome staining based assay relative to control; type: functional, organism-based
Mus musculus [14] = assay: Effect on inflammatory response in C57/Bl6 mouse assessed as change in bleomycin-induced total cell counts in bronchoalveolar lavage fluid at 0.35 to 3.5 mg/kg administered intratracheally as 4 doses every 48 hrs commencing on day 18 of bleomycin induction measured on day 26 post last dose; type: functional, organism-based
Mus musculus [15] = assay: Effect on inflammatory score in bleomycin-induced C57/Bl6 mouse at 1 to 3.5 mg/kg administered intratracheally as 4 doses every 48 hrs commencing on day 18 of bleomycin induction measured on day 26 post last dose by Masson's trichrome staining based assay; type: functional, organism-based
Mus musculus [16] = assay: Effect on inflammatory response in C57/Bl6 mouse assessed as change in bleomycin-induced total protein levels in bronchoalveolar lavage fluid at 0.35 to 3.5 mg/kg administered intratracheally as 4 doses every 48 hrs commencing on day 18 of bleomycin induction measured on day 26 post last dose; type: functional, organism-based
Galectin-3 [17] = biological target: Galectin-3 (Homo sapiens, UniProt P17931, R144S); assay: as §2, with “R144S” for “R186S”
Galectin-1 = Galectin-1 (Homo sapiens, UniProt P09382); assay: Competitive binding affinity to recombinant human galectin-1 after 5 mins in presence of fluorescent probe 3,3'-dideoxy-3-[4-(fluorescein-5-yl-carbonylaminomethyl)-1H-1,2,3-triazol-1-yl]-3'-(3,5-dimethoxy-benzamido)-1,1'-sulfanediyl-di-beta-D-galactopyranoside by fluorescence polarization assay
Mus musculus [18] = assay: as §4, with “3.5” for “0.35 to 1”; type: functional, organism-based
Galectin-3 [19] = biological target: Galectin-3 (Homo sapiens, UniProt P17931, R144K); assay: as §2, with “R144K” for “R186S”
Mus musculus [20] = assay: Anti-fibrotic activity in C57/Bl6 mouse assessed as reduction in bleomycin-induced galectin-3 levels in bronchoalveolar lavage fluid at 3.5 mg/kg administered intratracheally as 4 doses every 48 hrs commencing on day 18 of bleomycin induction measured on day 26 post last dose by ELISA; type: functional; parameters: scale not given: the % may be the effect or the level left
Mus musculus [21] = assay: Anti-fibrotic activity in C57/Bl6 mouse assessed as reduction in bleomycin-induced galectin-3 levels in bronchoalveolar lavage fluid at 0.35 mg/kg administered intratracheally as 4 doses every 48 hrs commencing on day 18 of bleomycin induction measured on day 26 post last dose by ELISA; type: functional; parameters: scale not given: the % may be the effect or the level left

T3 sequence (O00182 whole entry): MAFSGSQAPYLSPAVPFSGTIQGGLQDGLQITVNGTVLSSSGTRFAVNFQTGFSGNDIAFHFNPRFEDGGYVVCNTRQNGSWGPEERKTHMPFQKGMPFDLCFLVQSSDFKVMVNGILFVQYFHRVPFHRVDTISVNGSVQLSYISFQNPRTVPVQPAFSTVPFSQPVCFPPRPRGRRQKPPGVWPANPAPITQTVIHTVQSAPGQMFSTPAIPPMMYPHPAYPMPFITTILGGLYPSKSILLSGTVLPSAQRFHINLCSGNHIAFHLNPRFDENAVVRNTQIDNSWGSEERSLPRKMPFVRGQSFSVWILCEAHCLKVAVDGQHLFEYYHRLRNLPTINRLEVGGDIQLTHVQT
Sequence of Galectin-3 (Homo sapiens, UniProt P17931) (P17931 whole entry): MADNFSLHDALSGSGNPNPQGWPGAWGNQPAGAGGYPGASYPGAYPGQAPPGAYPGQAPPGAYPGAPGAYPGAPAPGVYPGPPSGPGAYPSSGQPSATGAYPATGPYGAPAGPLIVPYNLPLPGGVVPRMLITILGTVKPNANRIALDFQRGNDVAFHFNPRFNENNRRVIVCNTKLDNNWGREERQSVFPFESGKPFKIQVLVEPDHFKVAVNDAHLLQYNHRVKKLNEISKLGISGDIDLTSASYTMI
Sequence of Galectin-1 (P09382 whole entry): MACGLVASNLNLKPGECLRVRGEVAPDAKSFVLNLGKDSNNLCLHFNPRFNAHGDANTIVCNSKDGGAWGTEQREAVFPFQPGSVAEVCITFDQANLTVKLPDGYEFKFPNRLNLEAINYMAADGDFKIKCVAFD
Sequence of Galectin-3 (Homo sapiens, UniProt P17931, K176L) (P17931 2-250 K176L limits assumed): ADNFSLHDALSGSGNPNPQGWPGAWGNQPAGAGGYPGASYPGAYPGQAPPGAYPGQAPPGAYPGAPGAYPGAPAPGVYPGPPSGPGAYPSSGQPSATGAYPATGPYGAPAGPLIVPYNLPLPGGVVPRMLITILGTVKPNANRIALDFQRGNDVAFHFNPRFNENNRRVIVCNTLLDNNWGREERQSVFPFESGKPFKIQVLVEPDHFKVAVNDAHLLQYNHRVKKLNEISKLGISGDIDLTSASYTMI
Sequence of Galectin-3 (Homo sapiens, UniProt P17931, R144S) (P17931 2-250 R144S limits assumed): as the sequence (P17931 2-250 K176L limits assumed) above, with R143S, L175K counted along it
Sequence of Galectin-3 (Homo sapiens, UniProt P17931, R144K) (P17931 2-250 R144K limits assumed): as the sequence (P17931 2-250 K176L limits assumed) above, with R143K, L175K counted along it
Sequence of Galectin-3 (Homo sapiens, UniProt P17931, R186K) (P17931 2-250 R186K limits assumed): as the sequence (P17931 2-250 K176L limits assumed) above, with L175K, R185K counted along it
Sequence of Galectin-3 (Homo sapiens, UniProt P17931, R186S) (P17931 2-250 R186S limits assumed): as the sequence (P17931 2-250 K176L limits assumed) above, with L175K, R185S counted along it

Row | SMILES | Kd (Galectin-4 [1]) [µM] | Kd (Galectin-4 [2]) [µM] | Kd (Galectin-8) [µM] | Kd (Galectin-9 [3]) [µM] | Kd (Galectin-3 [5]) [µM] | solubility [6] | Kd (Galectin-7) [µM] | Kd (Galectin-1) [µM] | other results
1 | COc1ccc2cc(CO[C@H]3[C@@H](O)[C@@H](CO)O[C@@H](S[C@@H]4O[C@H](CO)[C@H](O)[C@H](OCc5cc6ccc(OC)cc6oc5=O)[C@H]4O)[C@@H]3O)c(=O)oc2c1 | 140 | > 500 | 84 | 8.3 | 0.19 | Soluble | 34 | – | Kd (Galectin-9 [4]): 45 µM
2 | O=c1oc2ccccc2cc1CO[C@H]1[C@@H](O)[C@@H](CO)O[C@@H](S[C@@H]2O[C@H](CO)[C@H](O)[C@H](OCc3cc4ccccc4oc3=O)[C@H]2O)[C@@H]1O | 41 | 210 | – | 1.6 | 0.091 | Soluble | 5 | 16 | Activity (Mus musculus [7]): 58%; Kd (Galectin-3 [8]): 50 µM; Kd (Galectin-2): 6.9 µM; Kd (Galectin-3 [9]): 110 µM; Activity (Mus musculus [10]): Active; Kd (Galectin-3 [11]): 0.27 µM; Activity (Mus musculus [12]): inactive; Activity (Mus musculus [13]): inactive; Activity (Mus musculus [14]): inactive; Activity (Mus musculus [15]): inactive; Activity (Mus musculus [16]): inactive; Kd (Galectin-3 [17]): 6.1 µM; Activity (Mus musculus [18]): Active; Kd (Galectin-3 [19]): 3 µM; Activity (Mus musculus [20]): 66%; Activity (Mus musculus [21]): 49%
3 | O=c1oc2ccc(Cl)cc2cc1CO[C@H]1[C@@H](O)[C@@H](CO)O[C@@H](S[C@@H]2O[C@H](CO)[C@H](O)[C@H](OCc3cc4cc(Cl)ccc4oc3=O)[C@H]2O)[C@@H]1O | – | – | 71 | 140 | 1.4 | Soluble | 60 | 21 | –
4 | O=C(N[C@H]1[C@@H](O)[C@@H](CO)O[C@@H](S[C@@H]2O[C@H](CO)[C@H](O)[C@H](NC(=O)c3ccc4ccccc4c3)[C@H]2O)[C@@H]1O)c1ccc2ccccc2c1 | – | – | – | – | 0.16 | – | 1.7 | – | –
